Several values for one entry are separate records, joined by “and”; a condition that tells them apart may be missing. Equal entries are not always repeated. Toxic doses and inconclusive results are not listed. Cut-off read from the data, not from the text of the source: active = T/C of 150% or more; inactive = T/C below 125%.
Tested on: L1210 leukemia ip in BDF1 mice, survival T/C
Assay: NCI In Vivo Anticancer Drug Screen. Data for tumor model L1210 Leukemia (intraperitoneal) in B6D2F1 (BDF1) mice
Settings: endpoint: mean survival time, higher = longer survival
Method in brief: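 In this screen, tumor-bearing mice given compound are compared to those given vehicle, and their survival values are reported as a treated-to-control quotient.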

[1] = dose: 100.0 mg/kg/injection, schedule: Q01DX009 (ip), vehicle: Klucel (hydroxypropylcellulose) (HPC)
[2] = dose: 200.0 mg/kg/injection, schedule: Q01DX009 (ip), vehicle: Klucel (hydroxypropylcellulose) (HPC)
[3] = dose: 400.0 mg/kg/injection, schedule: Q01DX009 (ip), vehicle: Klucel (hydroxypropylcellulose) (HPC)
[4] = dose: 100.0 mg/kg/injection, schedule: Q01DX001 (ip), vehicle: saline
[5] = dose: 200.0 mg/kg/injection, schedule: Q01DX001 (ip), vehicle: saline
[6] = dose: 400.0 mg/kg/injection, schedule: Q01DX001 (ip), vehicle: saline
[7] = dose: 100.0 mg/kg/injection, schedule: Q01DX009 (ip), vehicle: saline with Tween-80
[8] = dose: 200.0 mg/kg/injection, schedule: Q01DX009 (ip), vehicle: saline with Tween-80
[9] = dose: 400.0 mg/kg/injection, schedule: Q01DX009 (ip), vehicle: saline with Tween-80
[10] = dose: 100.0 mg/kg/injection, schedule: Q04DX003 (ip), vehicle: Klucel (hydroxypropylcellulose) (HPC)
[11] = dose: 200.0 mg/kg/injection, schedule: Q04DX003 (ip), vehicle: Klucel (hydroxypropylcellulose) (HPC)
[12] = dose: 400.0 mg/kg/injection, schedule: Q04DX003 (ip), vehicle: Klucel (hydroxypropylcellulose) (HPC)
[13] = dose: 100.0 mg/kg/injection, schedule: Q01DX001 (ip), vehicle: saline with Tween-80
[14] = dose: 50.0 mg/kg/injection, schedule: Q01DX009 (ip), vehicle: Klucel (hydroxypropylcellulose) (HPC)
[15] = dose: 100.0 mg/kg/injection, schedule: Q04DX002 (ip), vehicle: saline with Tween-80
[16] = dose: 100.0 mg/kg/injection, schedule: Q04DX003 (ip), vehicle: saline
[17] = dose: 200.0 mg/kg/injection, schedule: Q04DX002 (ip), vehicle: saline with Tween-80
[18] = dose: 200.0 mg/kg/injection, schedule: Q04DX003 (ip), vehicle: saline
[19] = dose: 400.0 mg/kg/injection, schedule: Q04DX002 (ip), vehicle: saline with Tween-80
[20] = dose: 400.0 mg/kg/injection, schedule: Q04DX003 (ip), vehicle: saline
[21] = dose: 50.0 mg/kg/injection, schedule: Q01DX001 (ip), vehicle: saline
[22] = dose: 100.0 mg/kg/injection, schedule: Q04DX002 (ip), vehicle: saline

Measured: T/C

CCCCOC(=O)c1ccc(NC(=O)Nc2ccc(SC)cc2)cc1
inactive: [1] 95 % of control | [2] 95 % of control | [3] 95 % of control

Clc1cccc2nsnc12
inactive: [1] 102 % of control | [2] 100 % of control | [3] 102 % of control

O=C(Nc1ccc(S(=O)(=O)NC2CCCCC2)cc1)OC(c1ccccc1)c1ccccc1
inactive: [4] 96 % of control | [5] 94 % of control | [6] 100 % of control

Cc1ccc(N=Nc2ccc(C)cc2NC(=O)Nc2ccccc2F)cc1
inactive: [1] 104 % of control | [2] 97 % of control | [3] 88 % of control

NC(=O)C(CC(=O)OCc1ccccc1)NC(=O)OCc1ccccc1 (stereo unspecified)
inactive: [7] 92 % of control | [8] 90 % of control | [9] 97 % of control

Nc1ccc(Cc2ccc(N)c(Cl)c2)cc1Cl
inactive: [10] 100 % of control | [11] 91 % of control | [12] 100 % of control

CC(C)(C)C1(O)CCCCC1
inactive: [1] 99 % of control | [10] 98 % of control | [2] 92 % of control | [11] 100 % of control | [3] 92 % of control | [12] 98 % of control

CC(C)CCn1ccc(N)nc1=O
inactive: dose: 25.0 mg/kg/injection, schedule: Q01DX001 (ip), vehicle: saline with Tween-80 97 % of control | dose: 50.0 mg/kg/injection, schedule: Q01DX001 (ip), vehicle: saline with Tween-80 101 % of control | [13] 90 % of control

O=[N+]([O-])c1ccc2c(c1)-c1ccccc1C1=NCCN12
inactive: dose: 20.0 mg/kg/injection, schedule: Q04DX003 (ip), vehicle: Klucel (hydroxypropylcellulose) (HPC) 91 % of control | dose: 25.0 mg/kg/injection, schedule: Q01DX009 (ip), vehicle: Klucel (hydroxypropylcellulose) (HPC) 105 % of control | dose: 40.0 mg/kg/injection, schedule: Q04DX003 (ip), vehicle: Klucel (hydroxypropylcellulose) (HPC) 96 % of control | [14] 102 % of control | dose: 80.0 mg/kg/injection, schedule: Q04DX003 (ip), vehicle: Klucel (hydroxypropylcellulose) (HPC) 102 % of control | [1] 105 % of control | [10] 101 % of control

Cc1ccc(NC(=O)CCC(=O)O)cc1[N+](=O)[O-]
inactive: [1] 97 % of control | [2] 101 % of control | [3] 98 % of control

Cc1ccc(Cl)cc1NC(=O)Nc1ccccc1C(N)=O
inactive: [13] 98 % of control | [7] 100 % of control and 110 % of control | [15] 93 % of control and 102 % of control | [16] 97 % of control | dose: 200.0 mg/kg/injection, schedule: Q01DX001 (ip), vehicle: saline with Tween-80 92 % of control | [8] 109 % of control and 120 % of control | [17] 93 % of control and 98 % of control | [18] 95 % of control | dose: 400.0 mg/kg/injection, schedule: Q01DX001 (ip), vehicle: saline with Tween-80 101 % of control | [9] 105 % of control and 89 % of control | [19] 95 % of control and 102 % of control | [20] 103 % of control

Cc1ccc(CN(CC(=O)O)N=O)cc1
inactive: dose: 100.0 mg/kg/injection, schedule: Q01DX Z (ip), vehicle: saline 107 % of control | dose: 200.0 mg/kg/injection, schedule: Q01DX Z (ip), vehicle: saline 100 % of control

CC(=O)/C=C/c1ccc([N+](=O)[O-])cc1
inactive: dose: 100.0 mg/kg/injection, schedule: Q04DX003 (ip), vehicle: saline sonified 95 % of control | dose: 200.0 mg/kg/injection, schedule: Q04DX003 (ip), vehicle: saline sonified 89 % of control | dose: 400.0 mg/kg/injection, schedule: Q04DX003 (ip), vehicle: saline sonified 92 % of control

CNC(=O)C(C)(C)Br
inactive: [16] 105 % of control | [18] 109 % of control | [20] 107 % of control

CC1CCCC/C1=N/O (stereo unspecified)
inactive: [4] 100 % of control | dose: 100.0 mg/kg/injection, schedule: Q01DX009 (ip), vehicle: saline 97 % of control | [5] 92 % of control | dose: 200.0 mg/kg/injection, schedule: Q01DX009 (ip), vehicle: saline 105 % of control | [6] 91 % of control | dose: 400.0 mg/kg/injection, schedule: Q01DX009 (ip), vehicle: saline 97 % of control

CCCCOB(OCCCC)OCCCC
inactive: [21] 104 % of control | [4] 95 % of control | [5] 90 % of control | [6] 106 % of control

CC1=NCCN=C(C)CC(C)(C)[N-]CC[N-]C(C)(C)C1.[Cl-].[Cl-].[Co+3].[O-][Cl+3]([O-])([O-])O
inactive: dose: 150.0 mg/kg/injection, schedule: Q04DX002 (ip), vehicle: Klucel (hydroxypropylcellulose) (HPC) 97 % of control | dose: 300.0 mg/kg/injection, schedule: Q04DX002 (ip), vehicle: Klucel (hydroxypropylcellulose) (HPC) 94 % of control

Cc1ccc[n+](CC(=O)CCc2ccc(C(=O)C[n+]3cccc(C)c3)cc2)c1
inactive: dose: 0.07 mg/kg/injection, schedule: Q04DX003 (ip), vehicle: saline 94 % of control | dose: 0.14 mg/kg/injection, schedule: Q04DX003 (ip), vehicle: saline 101 % of control

ON=C1CCCCC1
inactive: dose: 75.0 mg/kg/injection, schedule: Q01DX009 (ip), vehicle: other 95 % of control | [4] 88 % of control | [7] 96 % of control | dose: 100.0 mg/kg/injection, schedule: Q04DX002 (ip), vehicle: other 111 % of control | [15] 97 % of control | dose: 150.0 mg/kg/injection, schedule: Q01DX009 (ip), vehicle: other 105 % of control | [5] 96 % of control | [8] 94 % of control | dose: 200.0 mg/kg/injection, schedule: Q04DX002 (ip), vehicle: other 97 % of control | [17] 94 % of control | dose: 300.0 mg/kg/injection, schedule: Q01DX009 (ip), vehicle: other 94 % of control | [6] 93 % of control | [9] 91 % of control | dose: 400.0 mg/kg/injection, schedule: Q04DX002 (ip), vehicle: other 97 % of control | [19] 102 % of control

Cc1cc(N)c(S)cc1C
inactive: dose: 12.5 mg/kg/injection, schedule: Q04DX002 (ip), vehicle: saline with Tween-80 108 % of control | dose: 25.0 mg/kg/injection, schedule: Q04DX002 (ip), vehicle: saline with Tween-80 90 % of control | [21] 94 % of control | dose: 50.0 mg/kg/injection, schedule: Q04DX002 (ip), vehicle: saline with Tween-80 101 % of control | [4] 91 % of control

CCOC(=O)Nc1cc(N)cc(NC(=O)OCC)c1
inactive: [14] 101 % of control | [1] 104 % of control | [2] 106 % of control

CC(=O)NC(CCC(N)=O)C(=O)O (stereo unspecified)
inactive: [22] 99 % of control | dose: 200.0 mg/kg/injection, schedule: Q04DX002 (ip), vehicle: saline 89 % of control | dose: 400.0 mg/kg/injection, schedule: Q04DX002 (ip), vehicle: saline 96 % of control

CC(=O)NCc1cccc[n+]1[O-]
inactive: dose: 25.0 mg/kg/injection, schedule: Q04DX002 (ip), vehicle: saline 110 % of control | dose: 50.0 mg/kg/injection, schedule: Q04DX002 (ip), vehicle: saline 105 % of control | [22] 101 % of control and 105 % of control

c1cc(-c2sc(-c3ccncc3)c(-c3ccncc3)c2-c2ccncc2)ccn1
inactive: dose: 100.0 mg/kg/injection, schedule: Q01DX001 (ip), vehicle: Klucel (hydroxypropylcellulose) (HPC) 107 % of control | dose: 200.0 mg/kg/injection, schedule: Q01DX001 (ip), vehicle: Klucel (hydroxypropylcellulose) (HPC) 98 % of control | dose: 400.0 mg/kg/injection, schedule: Q01DX001 (ip), vehicle: Klucel (hydroxypropylcellulose) (HPC) 98 % of control

COc1ccc(-c2ccc(OC)c(OC)c2)cc1OC
inactive: dose: 100.0 mg/kg/injection, schedule: Q01DX001 (ip), vehicle: carboxymethylcellulose (CMC) 110 % of control | dose: 200.0 mg/kg/injection, schedule: Q01DX001 (ip), vehicle: carboxymethylcellulose (CMC) 104 % of control | dose: 400.0 mg/kg/injection, schedule: Q01DX001 (ip), vehicle: carboxymethylcellulose (CMC) 110 % of control
